# Results taken from patent US11873287B2, “Piperidine-2,6-dione derivatives and ulcerative colitis treating” (TIANJIN HEMAY PHARMACEUTICAL SCI-TECH CO., LTD, priority 2016, dated 2024).
# Entries after “also recorded” stand apart in the source; their conditions may differ.
# How the values were obtained:
# [1] = test system: DSS-Induced inflammatory Bowel Disease Models in Mice; test: DSS-induced inflammatory bowel disease model in mice (Biological Example 2, 0.9% DSS); assay type: in vivo, C57BL/6 mice; conditions: 30 mg/Kg i.g. Q.D; for body weights during the whole experiment compared with model control group: 0.9% DSS; for colon length (Mean ± SD): 0.9% DSS 5 days, end of experiment
# Description: 66 female C57BL/6 mice were randomly divided into 6 groups: normal control group, model control group, cyclosporine A (25 mg/Kg), 5-ASA (100 mg/Kg), the compound in Example 27 (30 mg/Kg) and the compound in Example 26 (30 mg/Kg). There were 11 mice in each group (see Table 4 below). Besides the normal control group, the remaining groups were induced with 0.9% DSS for 5 days. The day of induction was the first day of the test and then normal drinking water was administered for 4 days. The normal control group was administered with normal drinking water all the time. The model control group, 5-ASA group, the compound in Example 27 group and the compound in Example 26 group were administered with 1% CMC-Na or the corresponding drug every day from the first day of the experiment to the end of the experiment. The cyclosporine A group was administered with cyclosporine A every day from the first day of experiment to the fifth day of the experiment and was administered with the corresponding volume of 1% CMC-Na every day from the sixth day to the end of the experiment due to toxicity. The normal control group was administered with the corresponding volume of 1% CMC-Na every day. The animals were treated and the indexes were tested at the end of the experiment.
# The compound in Example 27, the compound in Example 26, 5-ASA or Cyclosporine A: Preparation Method: Suspended with 1% CMC-Na, and prepared when it was needed.
# One-Way Anova test was performed with SPSS 17.0. The colony length was analyzed statistically between groups.
# [2] = test system: ICR mice; test: Acute toxicity experiment of single oral administration in mice; assay type: in vivo; conditions: 1000 mg/Kg single oral dose
# Outline: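 Fasted ICR mice (19–21 g, 3 male and 3 female per group) received a single oral dose of 1000 mg/Kg, given first to one of each sex, then to the remaining four. Acute signs were scored over the first 15 min, then state, deaths and daily body weight over 7 days.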
# [3] = test system: DSS-Induced inflammatory Bowel Disease Models in Mice; test: DSS-induced inflammatory bowel disease model in mice (Biological Example 5, 1.3% DSS); assay type: in vivo, C57BL/6 mice; conditions: 30 mg/Kg i.g. Q.D, 1.3% DSS days 0-5
# Description: 40 healthy female C57BL/6 mice having weight of 16-19 g were randomly divided into 4 groups in accordance with weight. There were 10 mice in each group (see Table 6 below). The first day of the experiment was recorded as Day 0. The administration regimen and induction regimen were detailed in Table 6. The change in weight of experimental animals was recorded every day. […] Samples of animal colonic tissues were obtained to measure the length. One-way ANOVA analysis of mice weights was performed by SPSS22. Statistical analyses between groups were performed. Mann-Whitney U non-parametric test was performed on the length of colon.
# The experimental method used in the present biological example is identical to those in Biological Example 3.
# One-way ANOVA analysis of mice body weights and colonic weights per length was performed by SPSS22. Statistical analyses between groups were performed.
# Calculation Formula of Inhibitory Rate of Colonic Reduction: (Length of Colon in Administration Group−Length of Colon in Model Group)/(Length of Colon in Blank Group−Length of Colon in Model Group)
# [4] = test system: DSS-Induced Inflammatory Bowel Disease Models in Mice; test: DSS-induced inflammatory bowel disease model in mice (Biological Example 1, 1.6% DSS); assay type: in vivo, C57BL/6J mice; conditions: for colon length (Mean ± SD): 1.6% DSS 8 days, end of experiment
# Description: Experimental animals: C57BL/6J mice, weight of 16-18 g
# Piperidine-2,6-dione derivatives, 5-ASA or Cyclosporine A: Preparation Method: Suspended with 1% CMC-Na, and prepared when it was needed.
# 54 C57BL/6 mice were randomly divided into 6 groups: normal control group, model control group, Example 27 groups consisting of dose of 5 mg/Kg group, dose of 10 mg/Kg group and dose of 20 mg/Kg group, and cyclosporine A-25 mg/Kg group. There were 9 mice in each group (see Table 2 below). Besides the normal control group, the remaining groups were induced with 1.6% DSS for 8 days. Normal drinking water was then administered for 3 days. The normal control group was administered with normal drinking water all the time. The model control group and the compound in Example 27 group were administered with 1% CMC-Na or the corresponding drug every day until the end of the experiment. The cyclosporine A group was administered with the corresponding drug every day from the first day of experiment to the eighth day of the experiment and was administered with the corresponding volume of 1% CMC-Na every day from the ninth day to the end of the experiment due to toxicity. At the end of the experiment, the animals were treated and the indexes such as the colon length were tested.
# The homogeneity of data variance test was performed by Spss13.0. Where the variance of data was homogeneous (P>0.05), one-way ANOVA LSD test was performed. Where the variance was inhomogeneous (P≤0.05), the data were treated with extraction of a root and homogeneity of data variance test was further performed. Where the variance of data was homogeneous (P>0.05), one-way ANOVA LSD test was performed. Where the variance was still inhomogeneous (P≤0.05), then Dunnett's multiple comparison (parameter method) was performed.
smiles,measurement,setting,value
"COCCCN1C(=O)CCC(N2C(=O)c3cccc(N)c3C2=O)C1=O (stereo not shown) [Example 26, 4-amino-2-(1-(3-methoxypropyl)-2,6-dioxopiperidin-3-yl)isoindolin-1,3-dione]",body weights during the whole experiment compared with model control group,[1],higher than that of the model control group
same,colon length (Mean ± SD),[1],6.3 ± 0.5 cm
same,Daily Body Weight of Tested Female Mice (Mean ± SD),[2]; Day 1,18.0 ± 0.7 g
same,Daily Body Weight of Tested Male Mice (Mean ± SD),[2]; Day 1,18.7 ± 0.8 g
same,Daily Body Weight of Tested Female Mice (Mean ± SD),[2]; Day 2,21.9 ± 0.3 g
same,Daily Body Weight of Tested Male Mice (Mean ± SD),[2]; Day 2,23.4 ± 0.5 g
same,Daily Body Weight of Tested Female Mice (Mean ± SD),[2]; Day 3,22.1 ± 0.5 g
same,Daily Body Weight of Tested Male Mice (Mean ± SD),[2]; Day 3,25.0 ± 0.6 g
same,Daily Body Weight of Tested Female Mice (Mean ± SD),[2]; Day 4,22.4 ± 0.2 g
same,Daily Body Weight of Tested Male Mice (Mean ± SD),[2]; Day 4,26.6 ± 1.4 g
same,Daily Body Weight of Tested Female Mice (Mean ± SD),[2]; Day 5,22.7 ± 0.3 g
same,Daily Body Weight of Tested Male Mice (Mean ± SD),[2]; Day 5,27.3 ± 1.3 g
same,Daily Body Weight of Tested Female Mice (Mean ± SD),[2]; Day 6,22.6 ± 0.3 g
same,Daily Body Weight of Tested Male Mice (Mean ± SD),[2]; Day 6,28.3 ± 1.3 g
same,Daily Body Weight of Tested Female Mice (Mean ± SD),[2]; Day 7,22.4 ± 0.2 g
same,Daily Body Weight of Tested Male Mice (Mean ± SD),[2]; Day 7,28.8 ± 1.4 g
same,Summary of toxic response of tested animals in 7 Days,[2]; Female,Abnormality was not observed in 7 days of the test
same,Summary of toxic response of tested animals in 7 Days,[2]; Male,Abnormality was not observed in 7 days of the test
"COCCN1C(=O)CCC(N2C(=O)c3cccc(N)c3C2=O)C1=O (stereo not shown) [Example 27, 4-amino-2-(1-(2-methoxyethyl)-2,6-dioxopiperidin-3-yl)isoindolin-1,3-dione]","Length (cm, Mean ± SD) of colon",[3],6.7 ± 0.4 cm
same,inhibition in vivo at 30 mg/kg,"[3]; Mus musculus, po, read-out: Inhibitory Rate of Colonic Reduction",81.8%
same,Disease Activity Index (DAI),"[4]; 5 mg/Kg i.g. Q.D, 1.6% DSS",better than the DAI of model control group
same,relief of reduction in colon length in the model,"[4]; 5 mg/Kg i.g. Q.D, 1.6% DSS",certain relief effects
same,colon length (Mean ± SD),[4]; 5 mg/Kg i.g. Q.D,6.1 ± 0.4 cm
same,Disease Activity Index (DAI),"[4]; 10 mg/Kg i.g. Q.D, 1.6% DSS",better than the DAI of model control group
same,colon length (Mean ± SD),[4]; 10 mg/Kg i.g. Q.D,6.2 ± 0.4 cm
same,Disease Activity Index (DAI),"[4]; 20 mg/Kg i.g. Q.D, 1.6% DSS",equivalent to the DAI of the normal control group and cyclosporine A group; also recorded: better than the DAI of model control group
same,body weight of the animals during the experiment,"[4]; 20 mg/Kg i.g. Q.D, 1.6% DSS",continuous increase trend
same,relief of reduction in colon length in the model,"[4]; 20 mg/Kg i.g. Q.D, 1.6% DSS",significant relief effects
same,colon length (Mean ± SD),[4]; 20 mg/Kg i.g. Q.D,6.4±0.4 cm
same,body weights during the whole experiment compared with model control group,[1],higher than that of the model control group
same,colon length (Mean ± SD),[1],6.3 ± 0.5 cm
